In patent US10703733B2, “MCL-1 inhibitors” (Gilead Sciences, Inc., priority 2018, dated 2020):
Like-named read-outs stand apart in the source and are kept apart here.

How the values were obtained:
[1] = target: MCL-1/Bim interaction (recombinant human MCL-1 protein, residues 171-327; biotinylated human Bim peptide, residues 51-76) (Homo sapiens (Human), UniProt Q07820); assay: MCL-1/Bim Binding AlphaLISA Assay; details: 0.0625 nM 6xHis-Mcl-1 (171-327), 0.0625 nM biotinylated-Bim peptide
In short: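 Compounds first sat 1 h with MCL-1 (171-327, 0.0625 nM), followed by 2 h with biotin-Bim 51-76 (0.0625 nM), then sequential 1 h anti-His acceptor and streptavidin donor bead steps; buffer Hepes pH 7.5 with NaCl, Brij 35, DTT, BSA. AlphaScreen signal converted to % inhibition using DMSO (negative) and protein/peptide-free (positive) controls.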

SKBR3 cells = assay: SKBR3 Cell Viability Assay (CellTiter Glo); format: cell-based; details: CellTiter Glo luminescence, read-out: MCL-1 CV SKBR3 EC50
In short: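 Viability read as CellTiter Glo luminescence after 72 h of compound exposure at 37° C./5% CO2, using 6,000 SKBR3 cells per well in McCoy 5A with 10% FBS. Percent inhibition scaled between DMSO wells and 10 μM puromycin wells.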

MCL-1/Bim interaction (recombinant human MCL-1 protein, residues 171-327; biotinylated human Bim peptide, residues 51-76), sequence (Q07820 171-327): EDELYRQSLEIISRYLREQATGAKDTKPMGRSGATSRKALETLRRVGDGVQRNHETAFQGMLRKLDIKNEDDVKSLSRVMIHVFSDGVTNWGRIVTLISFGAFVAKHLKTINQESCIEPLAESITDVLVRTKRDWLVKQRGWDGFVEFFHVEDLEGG

| SMILES | IC50 [1] | EC50 (SKBR3 cells; Homo sapiens, SK-BR-3, 72 h) | EC50 (SKBR3 cells; 72 hours) |
| --- | --- | --- | --- |
| CCO[C@H]1/C=C/[C@H](OC)[C@@H]2CC[C@H]2CN2C[C@@]3(CCCc4cc(Cl)ccc43)COc3ccc(cc32)C(=O)N=[S@](=O)(NC(=O)c2cn(C)nc2OC)C[C@H]1C [Example 296] | 0.053 nM | 64.1 nM | – |
| COCC(=O)NS1(=O)=NC(=O)c2ccc3c(c2)N(C[C@@H]2CC[C@H]2[C@@H](OC)/C=C/CCC1)C[C@@]1(CCCc2cc(Cl)ccc21)CO3 (single isomer, unassigned) [Example 7] | 1.2 nM | – | 4800 nM |
| CO[C@H]1/C=C/C[C@H](C)C[S@@](=O)(NC(=O)N2CC(C(C)(C)O)C2)=NC(=O)c2ccc3c(c2)N(C[C@@H]2CC[C@H]21)C[C@@]1(CCCc2cc(Cl)ccc21)CO3 [Example 237] | 0.044 nM | 121 nM | – |
| CO[C@H]1/C=C/C[C@H](C)C[S@@](=O)(NC(=O)N2CC(CO)(OC)C2)=NC(=O)c2ccc3c(c2)N(C[C@@H]2CC[C@H]21)C[C@@]1(CCCc2cc(Cl)ccc21)CO3 [Example 267] | 0.03 nM | 184 nM | – |
| CO[C@H]1/C=C/CCC[S@@](=O)(NC(=O)Cc2ncccn2)=NC(=O)c2ccc3c(c2)N(C[C@@H]2CC[C@H]21)C[C@@]1(CCCc2cc(Cl)ccc21)CO3 [Example 30] | 0.6 nM | 1840 nM | – |
| CO[C@H]1/C=C/CCC[S@@](=O)(NC(=O)CCc2scnc2C)=NC(=O)c2ccc3c(c2)N(C[C@@H]2CC[C@H]21)C[C@@]1(CCCc2cc(Cl)ccc21)CO3 [Example 93] | 51 nM | 4820 nM | – |
| CO[C@H]1/C=C/C[C@H](C)C[S@@](=O)(NC(=O)N2CC3(COCCO3)C2)=NC(=O)c2ccc3c(c2)N(C[C@@H]2CC[C@H]21)C[C@@]1(CCCc2cc(Cl)ccc21)CO3 [Example 248] | 0.042 nM | 55.3 nM | – |
| CC[C@H]1C/C=C/[C@H](OC)[C@@H]2CC[C@H]2CN2C[C@@]3(CCCc4cc(Cl)ccc43)COc3ccc(cc32)C(=O)N=[S@](=O)(NC(=O)c2cnn(C)c2)C1 [Example 201] | 0.042 nM | 103 nM | – |
| CO[C@H]1/C=C/C[C@H](C)C[S@@](=O)(NC(=O)N[C@@H]2CC[C@@H](O)C2)=NC(=O)c2ccc3c(c2)N(C[C@@H]2CC[C@H]21)C[C@@]1(CCCc2cc(Cl)ccc21)CO3 [Example 222] | 0.044 nM | 80.1 nM | – |
| CO[C@H]1/C=C/CCC[S@@](=O)(NC(=O)CCn2cncn2)=NC(=O)c2ccc3c(c2)N(C[C@@H]2CC[C@H]21)C[C@@]1(CCCc2cc(Cl)ccc21)CO3 [Example 42] | 0.1 nM | 3340 nM | – |
| COc1nn(C)cc1C(=O)N[S@@]1(=O)=NC(=O)c2ccc3c(c2)N(C[C@@H]2CC[C@H]2[C@@H](OC)/C=C/[C@H](OC)[C@H](C)C1)C[C@@]1(CCCc2cc(Cl)ccc21)CO3 [Example 283] | 0.029 nM | 84.8 nM | – |
| CCC(=O)NS1(=O)=NC(=O)c2ccc3c(c2)N(C[C@@H]2CC[C@H]2[C@@H](OC)/C=C/CC[C@H]1CC)C[C@@]1(CCCc2cc(Cl)ccc21)CO3 (single isomer, unassigned) [Example 65] | 1.8 nM | – | 1970 nM |
| CCn1nccc1CCC(=O)N[S@@]1(=O)=NC(=O)c2ccc3c(c2)N(C[C@@H]2CC[C@H]2[C@@H](OC)/C=C/CCC1)C[C@@]1(CCCc2cc(Cl)ccc21)CO3 [Example 45] | 0.1 nM | 191 nM | – |
| COc1c(C(=O)N[S@@]2(=O)=NC(=O)c3ccc4c(c3)N(C[C@@H]3CC[C@H]3[C@@H](OC)/C=C/C[C@H](C)C2)C[C@@]2(CCCc3cc(Cl)ccc32)CO4)cn2c1COCC2 [Example 191] | 0.103 nM | 123 nM | – |
| CO[C@H]1/C=C/C[C@H](C)C[S@@](=O)(NC(=O)N[C@@H]2C[C@H]2CC(F)F)=NC(=O)c2ccc3c(c2)N(C[C@@H]2CC[C@H]21)C[C@@]1(CCCc2cc(Cl)ccc21)CO3 (single isomer, unassigned) [Example 281] | 0.154 nM | – | 184 nM |
| COC(=O)N[C@H](C(=O)N1CCN(C(=O)N[S@@]2(=O)=NC(=O)c3ccc4c(c3)N(C[C@@H]3CC[C@H]3[C@@H](OC)/C=C/C[C@H](C)C2)C[C@@]2(CCCc3cc(Cl)ccc32)CO4)C[C@@H]1C)C(C)C [Example 285] | 0.131 nM | 79.7 nM | – |
| CO[C@H]1/C=C/C[C@H](C)C[S@@](=O)(NC(=O)NC2CC3(COC3)C2)=NC(=O)c2ccc3c(c2)N(C[C@@H]2CC[C@H]21)C[C@@]1(CCCc2cc(Cl)ccc21)CO3 [Example 217] | 0.065 nM | 83.2 nM | – |
| CCOC1CN(C(=O)N[S@@]2(=O)=NC(=O)c3ccc4c(c3)N(C[C@@H]3CC[C@H]3[C@@H](OC)/C=C/C[C@H](C)C2)C[C@@]2(CCCc3cc(Cl)ccc32)CO4)C1 [Example 235] | 0.035 nM | 39.8 nM | – |
| CO[C@H]1/C=C/CCC[S@@](=O)(NC(=O)CCn2nccc2C)=NC(=O)c2ccc3c(c2)N(C[C@@H]2CC[C@H]21)C[C@@]1(CCCc2cc(Cl)ccc21)CO3 [Example 56] | 0.6 nM | 1180 nM | – |
| CO[C@H]1/C=C/C[C@H](C)C[S@@](=O)(NC(=O)N[C@@H]2C[C@H]2c2cnn(C)c2)=NC(=O)c2ccc3c(c2)N(C[C@@H]2CC[C@H]21)C[C@@]1(CCCc2cc(Cl)ccc21)CO3 (single isomer, unassigned) [Example 183] | 0.132 nM | – | 195 nM |

Second part, the compound after the results:

| IC50 [1] | EC50 (SKBR3 cells; Homo sapiens, SK-BR-3, 72 h) | EC50 (SKBR3 cells; 72 hours) | SMILES |
| --- | --- | --- | --- |
| 0.103 nM | 257 nM | – | COc1nn(C)cc1C(=O)N[S@@]1(=O)=NC(=O)c2ccc3c(c2)N(C[C@@H]2CC[C@H]2[C@H](O)/C=C/C[C@H](C)[C@H]1C)C[C@@]1(CCCc2cc(Cl)ccc21)CO3 [Example 353] |
| 0.114 nM | 95.1 nM | – | COC(=O)c1cc(C(=O)N[S@@]2(=O)=NC(=O)c3ccc4c(c3)N(C[C@@H]3CC[C@H]3[C@@H](OC)/C=C/C[C@H](C)C2)C[C@@]2(CCCc3cc(Cl)ccc32)CO4)cn1C [Example 358] |
| 0.104 nM | 332 nM | – | CO[C@H]1/C=C/C[C@H](C)C[S@@](=O)(NC(=O)[C@H]2CCOC2)=NC(=O)c2ccc3c(c2)N(C[C@@H]2CC[C@H]21)C[C@@]1(CCCc2cc(Cl)ccc21)CO3 [Example 427] |
| 0.029 nM | 10.5 nM | – | CO[C@H]1/C=C/C[C@H](C)C[S@@](=O)(NC(=O)c2cc(CN3CCN(C4COC4)CC3)n(C)c2)=NC(=O)c2ccc3c(c2)N(C[C@@H]2CC[C@H]21)C[C@@]1(CCCc2cc(Cl)ccc21)CO3 [Example 309] |
| 0.079 nM | 376 nM | – | COc1nnccc1C(=O)N[S@@]1(=O)=NC(=O)c2ccc3c(c2)N(C[C@@H]2CC[C@H]2[C@@H](OC)/C=C/C[C@H](C)C1)C[C@@]1(CCCc2cc(Cl)ccc21)CO3 [Example 458] |
| 0.03 nM | 56.4 nM | – | CO[C@H]1/C=C/C[C@H](C)C[S@@](=O)(NC(=O)N2CCC(OC(F)F)CC2)=NC(=O)c2ccc3c(c2)N(C[C@@H]2CC[C@H]21)C[C@@]1(CCCc2cc(Cl)ccc21)CO3 [Example 330] |
| 0.132 nM | 161 nM | – | CO[C@H]1/C=C/C[C@H](C)C[S@@](=O)(NC(=O)[C@]23COCC2C3)=NC(=O)c2ccc3c(c2)N(C[C@@H]2CC[C@H]21)C[C@@]1(CCCc2cc(Cl)ccc21)CO3 (stereo partly drawn) [Example 447] |
| 0.834 nM | 1660 nM | – | COC1CN(c2nn(C)cc2C(=O)N[S@@]2(=O)=NC(=O)c3ccc4c(c3)N(C[C@@H]3CC[C@H]3[C@@H](OC)/C=C/C[C@H](C)C2)C[C@@]2(CCCc3cc(Cl)ccc32)CO4)C1 [Example 379] |
| 0.076 nM | 52.6 nM | – | COC[C@@H]1Cn2cc(C(=O)N[S@@]3(=O)=NC(=O)c4ccc5c(c4)N(C[C@@H]4CC[C@H]4[C@@H](O)/C=C/C[C@H](C)C3)C[C@@]3(CCCc4cc(Cl)ccc43)CO5)cc2CO1 [Example 326] |
| 0.091 nM | 210 nM | – | CO[C@H]1/C=C/C[C@H](C)C[S@@](=O)(NC(=O)COC2CC2)=NC(=O)c2ccc3c(c2)N(C[C@@H]2CC[C@H]21)C[C@@]1(CCCc2cc(Cl)ccc21)CO3 [Example 445] |
| 0.084 nM | 79.8 nM | – | CO[C@H]1CCN(C(=O)N[S@@]2(=O)=NC(=O)c3ccc4c(c3)N(C[C@@H]3CC[C@H]3[C@@H](OC)/C=C/C[C@H](C)C2)C[C@@]2(CCCc3cc(Cl)ccc32)CO4)C1 [Example 347] |
| 0.071 nM | 51.1 nM | – | CO[C@H]1/C=C/C[C@H](C)C[S@@](=O)(NC(=O)c2cc(C(=O)N(C)C)n(C)c2)=NC(=O)c2ccc3c(c2)N(C[C@@H]2CC[C@H]21)C[C@@]1(CCCc2cc(Cl)ccc21)CO3 [Example 332] |
| 0.659 nM | 1200 nM | – | COC(=O)c1ccn2c1CN(C(=O)N[S@@]1(=O)=NC(=O)c3ccc4c(c3)N(C[C@@H]3CC[C@H]3[C@@H](OC)/C=C/C[C@H](C)C1)C[C@@]1(CCCc3cc(Cl)ccc31)CO4)CC2 [Example 383] |
| 0.054 nM | 241 nM | – | CCn1ccc(CCC(=O)N[S@@]2(=O)=NC(=O)c3ccc4c(c3)N(C[C@@H]3CC[C@H]3[C@@H](OC)/C=C/C[C@H](C)[C@H]2C)C[C@@]2(CCCc3cc(Cl)ccc32)CO4)n1 [Example 408] |
| 0.019 nM | 17.3 nM | – | COc1nn(C)cc1C(=O)N[S@@]1(=O)=NC(=O)c2ccc3c(c2)N(C[C@@H]2CC[C@H]2[C@@H](O)/C=C\C[C@H](C)[C@H]1C)C[C@@]1(CCCc2cc(Cl)ccc21)CO3 [Example 343] |
| 0.037 nM | 22.6 nM | – | COC[C@@H]1Cn2cc(C(=O)N[S@@]3(=O)=NC(=O)c4ccc5c(c4)N(C[C@@H]4CC[C@H]4[C@@H](O)/C=C/C[C@H](C)[C@H]3C)C[C@@]3(CCCc4cc(Cl)ccc43)CO5)cc2CO1 [Example 345] |
